Measured values taken from US20190060249A1 (priority 2017, published 2019).

Assays:
[1] = tested on: E13.5 embryonic SMG epithelia; assay: Embryonic epithelial rudiment cultures; assay type: cell-based, mouse
Excerpt: Embryonic epithelial rudiment cultures: Epithelia and mesenchyme were separated using dispase treatment and mechanical dissection and cultured in a drop of laminin on a nucleopore filter over serum-free DMEM/F12 containing holotransferrin and ascorbic acid (complete media) as described for the E13 submandibular gland (Steinberg, Z., Myers, C., Heim, V. M., Lathrop, C. A., Rebustini, I. T., Stewart, J. S., Larsen, M., and Hoffman, M. P. (2005) FGFR2b signaling regulates ex vivo submandibular gland epithelial cell proliferation and branching morphogenesis. Development (Cambridge, England) 132, 1223-1234). Epithelia were cultured with 400 ng/ml FGF10 (R&D Systems) and 0.5 μl/ml heparin sulfate (Sigma Aldrich) in the presence or absence of 25-200 μM ALDH341 or vehicle (PEG) and were subjected to RNA isolation or fixed for immunostaining after 24-48 h.
N=6-7 epithelia per group.
[…] confocal section of all three markers (top) and averaged confocal sections of c-KIT only (bottom).
Samples were tested in triplicate.
Immunohistochemistry: Embryonic rudiment immunofluorescence analysis has been previously described in, Knox, S. M., Lombaert, I. M., Reed, X., Vitale-Cross, L., Gutkind, J. S., and Hoffman, M. P. (2010) Parasympathetic innervation maintains epithelial progenitor cells during salivary organogenesis. Science (New York, N.Y.) 329, 1645-1647. In brief, tissue was fixed with 4% PFA for 20-30 min followed by permeabilizing with 0.1-0.3% Triton-X. Tissue was blocked overnight at 4° C. with 10% Donkey Serum (Jackson Laboratories), 1% BSA (Sigma Aldrich), and MOM IgG-blocking reagent (Vector Laboratories) in 0.01% PBS-Tween-20. SGs were incubated with primary antibodies overnight at 4° C.: rabbit anti-cKIT (1:200, Santa Cruz Biotech, M14), and rat anti-E-cadherin (1:300, Life Technologies, 13-1900). Antibodies were detected using Cy2-, Cy3- or Cy5-conjugated secondary Fab fragment antibodies (Jackson Laboratories) and nuclei stained using Hoescht 33342 (1:1000, Sigma Aldrich). Fluorescence was analyzed using a Leica Sp5 confocal microscope and NIH ImageJ software.
qPCR: RNA was isolated from whole tissue using RNAqueous Micro Kit (Ambion). Total RNA samples were DNase-treated (Ambion), prior to cDNA synthesis using SuperScript reagents (Invitrogen). SYBRgreen qPCR was performed using 1 ng of cDNA and primers designed using Primer3 and Beacon Designer software or found using PrimerBank (http://pga.mgh.harvard.edu/primerbank/). Melt-curves and primer efficiency were determined as previously described (Hoffman, M. P., Kidder, B. L., Steinberg, Z. L., Lakhani, S., Ho, S., Kleinman, H K., and Larsen, M. (2002) Gene expression profiles of mouse submandibular gland development: FGFR1 regulates branching morphogenesis in vitro through BMP- and FGF-dependent mechanisms. Development (Cambridge, England) 129, 5767-5778). Gene expression was normalized to the housekeeping gene S29 (Rps29).

[2] = human, 2 g/d oral Alda-341 for 2 weeks
Excerpt: Saliva and plasma samples were collected at baseline, and at the time of surgery, and normal salivary gland tissue was collected at the time of surgery.
Patients were required to be between 18 to 85 years of age, have elected to undergo surgery for recent diagnosis of parotid or submandibular gland tumor, and qualified for anesthesia. […] Patients were excluded from study participation if nursing or pregnant or diagnosed with kidney disease, end stage liver disease, metastatic cancer, or any unstable medical condition. […] Blood and saliva samples were collected at baseline and on the day of surgery. Normal and tumor salivary gland tissue were collected during surgery. Drug levels in tissue, plasma, and saliva were measured by the GCMS method described herein.
An aliquot of the heptane layer was used for analysis. […] Samples volumes of 1 μL splitless were injected with an inlet temperature of 220° C. The flow rate was constant at 1 mL/min. An Agilent DB-5MS UI column was used (30 m length, 0.250 mm inner diameter, 0.25 micron film). […] Calibration curves were linear from 4 to 8000 ng/mL.

Human salivary cells = assay: Salisphere formation assay, human; assay type: cell-based; details: 25 μM Alda-341; cells from normal salivary gland tissue of head and neck cancer patients
Method: Salisphere formation assay: Cells isolated from mouse submandibular glands (SMG) were FACS sorted using cell surface markers EpCAM and CD24 as previously described and seeded on matrigel (BD Biosciences, BD356235). Cells were grown in DMEM/F12+GlutaMax (Gibco, 10565-018) media containing 10% FBS, 1× anti-anti, 1% N2 supplement (Gibco), 20 ng/mL […] (Sigma-Aldrich), 20 ng/mL fibroblast growth factor-2 (Sigma-Aldrich), 10 μg/mL insulin (Sigma-Aldrich), 1 μM dexamethasone (Sigma-Aldrich), 10 μM […] (Stem Cell Technologies). Spheres were passaged every 7 days by dissociating into single cells by incubating in 1 mg/mL dispase (BD Biosciences) for 20 minutes and 0.25% trypsin-EDTA for 20 minutes. Spheres were grown for 7 days and imaged with a BZ-X710 Keyence microscope using the z-stack function. Images were stitched together into a single image and analyzed using ImageJ (NIH) to quantify sphere number and area. Experiments were repeated at least 3 independent times.
Sphere number per well quantified by Image J (NIH). 4 replicates per group.
Salivary gland tissue dissociation: Mouse and human salivary gland cells were isolated as previously described in, Szlavik, V., Szabo, B., Vicsek, T., Barabas, J., Bogdan, S., Gresz, V., Varga, G., O'Connell, B., and Vag, J. (2008) Differentiation of primary human submandibular gland cells cultured on basement membrane extract. […]

[3] = tested on: murine WT EpCAM+/CD24+-sorted cells; assay: Annexin V assay; assay type: cell-based, mouse; details: 100 μM Alda-341; Annexin V and propidium iodide, FACS
Method: Annexin V^+PI^+ are interpreted as late apoptotic cells and appear in the upper right quadrant. 5-6 replicates per group.
Cells were dissociated from matrigel, stained with Biolegend's FITC Annexin V Apoptosis Detection Kit with Propidium Iodide ([…]), and analyzed by flow cytometry. Annexin V^+PI^− cells were analyzed as early apoptotic cells and Annexin V^+PI^+ cells were analyzed as late apoptotic cells. Five to six replicates per group were assayed.

[4] = 200 μM Alda-341, RT-qPCR vs vehicle control

C=C(C)[C@H]1CC=C(C)CC1 [Alda-341, D-limonene]
localisation of c-Kit+ cells (immunofluorescence) ([1]; 200 μM Alda-341, 24 h): limited to the end buds only | expression of acinar progenitor marker Sox10 [1, 4]: Increased expression | transcript level of acinar maturation marker Aqp5 [1, 4]: increased transcript levels | transcript level of acinar maturation marker Mist1 [1, 4]: increased transcript levels | number of end buds ([1]; cultured 24 h, 100 μM and 200 μM Alda-341): dose-dependent increase | epithelial area ([1]; cultured 24 h, 100 μM and 200 μM Alda-341, normalized to vehicle control): dose-dependent increase | average plasma drug levels after treatment [2]: 144.3 ng/mL | more salispheres than untreated cells (Human salivary cells): about 30% | fewer early and late apoptotic cells compared to vehicle control [3]: about 60%
